# Measurements as given in PMC8662647, “Two Functional Epithelial Sodium Channel Isoforms Are Present in Rodents despite Pronounced Evolutionary Pseudogenization and Exon Fusion” (Molecular Biology and Evolution, 2021).
# Tests used:
# [1] = biological target: T1, guinea pig αβγ-ENaC (Cavia porcellus, UniProt B8QP44+H0UT09+H0VNV9); assay: two-electrode voltage clamp, Xenopus oocytes, concentration-response; assay type: cell-based
# T1 construct: gene SCNN1A; heterotrimer in Xenopus laevis oocytes; printed GenBank ids are 5'RACE products
# T1 sequence (B8QP44 1-656): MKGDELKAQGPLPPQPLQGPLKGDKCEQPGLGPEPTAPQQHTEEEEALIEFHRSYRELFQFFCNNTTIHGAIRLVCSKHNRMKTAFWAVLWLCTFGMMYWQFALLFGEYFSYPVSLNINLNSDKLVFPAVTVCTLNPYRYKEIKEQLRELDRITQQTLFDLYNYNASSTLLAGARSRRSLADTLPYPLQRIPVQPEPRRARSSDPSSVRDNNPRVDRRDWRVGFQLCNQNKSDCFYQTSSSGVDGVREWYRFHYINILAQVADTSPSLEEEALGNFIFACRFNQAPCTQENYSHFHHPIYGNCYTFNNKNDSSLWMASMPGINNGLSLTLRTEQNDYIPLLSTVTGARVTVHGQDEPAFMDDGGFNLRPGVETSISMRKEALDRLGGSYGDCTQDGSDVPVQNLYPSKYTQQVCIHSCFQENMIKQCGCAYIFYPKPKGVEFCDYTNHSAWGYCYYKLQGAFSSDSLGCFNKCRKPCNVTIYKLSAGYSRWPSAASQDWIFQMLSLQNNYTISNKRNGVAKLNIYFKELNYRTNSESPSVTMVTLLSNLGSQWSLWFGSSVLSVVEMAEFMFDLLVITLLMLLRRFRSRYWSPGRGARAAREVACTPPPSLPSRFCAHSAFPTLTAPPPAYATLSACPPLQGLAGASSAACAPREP
# T1 sequence (H0VNV9 1-640): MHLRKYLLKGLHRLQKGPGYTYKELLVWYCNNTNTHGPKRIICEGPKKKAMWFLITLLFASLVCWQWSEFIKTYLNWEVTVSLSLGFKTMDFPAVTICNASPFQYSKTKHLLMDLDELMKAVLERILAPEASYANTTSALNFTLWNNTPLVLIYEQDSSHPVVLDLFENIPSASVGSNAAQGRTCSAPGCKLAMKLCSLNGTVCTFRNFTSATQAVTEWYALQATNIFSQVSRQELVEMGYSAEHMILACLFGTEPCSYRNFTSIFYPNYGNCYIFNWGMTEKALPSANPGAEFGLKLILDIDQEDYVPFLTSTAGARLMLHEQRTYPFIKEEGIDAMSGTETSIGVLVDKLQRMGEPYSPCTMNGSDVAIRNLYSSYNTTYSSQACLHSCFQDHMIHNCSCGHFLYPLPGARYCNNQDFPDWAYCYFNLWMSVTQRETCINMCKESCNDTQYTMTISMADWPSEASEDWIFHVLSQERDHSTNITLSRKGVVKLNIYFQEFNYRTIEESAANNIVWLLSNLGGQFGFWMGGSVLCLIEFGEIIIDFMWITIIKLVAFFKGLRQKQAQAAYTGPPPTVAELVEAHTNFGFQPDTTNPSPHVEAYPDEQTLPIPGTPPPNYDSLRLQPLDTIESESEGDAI
# T1 sequence (H0UT09 1-653): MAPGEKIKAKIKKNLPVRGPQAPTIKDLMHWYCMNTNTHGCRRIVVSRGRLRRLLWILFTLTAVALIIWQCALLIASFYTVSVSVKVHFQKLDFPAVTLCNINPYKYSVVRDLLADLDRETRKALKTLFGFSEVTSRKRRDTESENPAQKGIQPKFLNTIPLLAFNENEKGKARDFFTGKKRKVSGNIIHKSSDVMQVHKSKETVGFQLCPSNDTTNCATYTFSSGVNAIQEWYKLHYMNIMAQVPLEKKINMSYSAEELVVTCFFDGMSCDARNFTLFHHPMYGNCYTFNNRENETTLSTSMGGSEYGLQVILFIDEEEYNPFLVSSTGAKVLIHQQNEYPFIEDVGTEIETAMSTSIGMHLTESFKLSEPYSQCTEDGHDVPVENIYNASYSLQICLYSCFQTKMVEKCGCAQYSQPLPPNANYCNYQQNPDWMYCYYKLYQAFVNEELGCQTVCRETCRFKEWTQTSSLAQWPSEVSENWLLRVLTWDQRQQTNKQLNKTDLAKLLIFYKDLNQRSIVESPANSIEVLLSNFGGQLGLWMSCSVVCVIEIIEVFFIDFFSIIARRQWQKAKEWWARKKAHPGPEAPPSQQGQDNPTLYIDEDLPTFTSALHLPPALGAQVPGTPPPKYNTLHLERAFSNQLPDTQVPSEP
# [2] = biological target: T2, guinea pig δβγ-ENaC (Cavia porcellus, UniProt H0UT09+H0VJS1+H0VNV9); assay: as above; assay type: cell-based; settings: channel block; -60 mV; ORS 90 mM NaCl, pH 7.4, room temperature
# T2 construct: gene Scnn1d; heterotrimer in Xenopus laevis oocytes; δ with fused exons 11/12
# T2 sequence (H0VJS1 1-618): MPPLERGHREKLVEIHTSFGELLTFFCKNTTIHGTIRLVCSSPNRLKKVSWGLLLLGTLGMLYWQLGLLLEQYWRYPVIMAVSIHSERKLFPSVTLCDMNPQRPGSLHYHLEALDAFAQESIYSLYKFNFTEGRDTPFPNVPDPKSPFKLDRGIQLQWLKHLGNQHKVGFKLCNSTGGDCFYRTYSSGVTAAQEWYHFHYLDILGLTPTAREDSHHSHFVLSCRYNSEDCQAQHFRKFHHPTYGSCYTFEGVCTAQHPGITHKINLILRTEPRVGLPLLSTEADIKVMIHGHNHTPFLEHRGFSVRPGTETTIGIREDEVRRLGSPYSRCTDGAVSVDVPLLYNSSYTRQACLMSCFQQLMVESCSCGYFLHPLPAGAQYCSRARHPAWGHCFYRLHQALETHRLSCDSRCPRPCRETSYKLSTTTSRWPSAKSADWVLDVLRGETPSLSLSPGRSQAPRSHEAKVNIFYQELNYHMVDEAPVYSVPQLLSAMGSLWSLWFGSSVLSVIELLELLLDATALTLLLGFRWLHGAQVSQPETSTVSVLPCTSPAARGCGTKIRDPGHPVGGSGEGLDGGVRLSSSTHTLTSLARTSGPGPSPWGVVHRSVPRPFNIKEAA
# T2 sequence (H0VNV9 1-640): T1 sequence (H0VNV9 1-640)
# T2 sequence (H0UT09 1-653): T1 sequence (H0UT09 1-653)
smiles,measurement,setting,value
N=C(N)NC(=O)c1nc(Cl)c(N)nc1N [amiloride],IC50,[1],150 ± 20 nM
same,IC50,[2],240 ± 50 nM
